This is an account of results in patent US7582611B2, “Motilide compounds” (Pfizer Inc., priority 2005, dated 2009).

pEC50: −log10 of the molar value. ≈ marks a conversion by molar mass, not a printed value.

The test system of assay [1] is Streptococcus pneumoniae ATCC 6301. In words: Evaluation of antibacterial activity (MIC, serial dilutions on 96-well microtiter plates). Conditions: ATCC6301, read-out: Antibacterial Activity (MIC, μg/mL). Format: cell-based.
A further assay addresses T1, Motilin Receptor (Oryctolagus cuniculus, UniProt G1T803).
T1 construct: strips of longitudinal smooth muscle were sliced from the segments; from tissue; host or cells: rabbit duodenum longitudinal smooth muscle strips
In words: Tissue based assay for motilin agonist potency (rabbit duodenum contractility). Type of assay: cell-based. Conditions: rabbit duodenum strips, contraction normalized to 1 μM carbachol; read-out: Motilin Receptor Agonist Activity (EC50). The gist of the method:
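Longitudinal smooth-muscle strips of rabbit duodenum, mucosa removed, in oxygenated Krebs at 37 °C under 1.5 g tension; auxotonic contractions. Cumulative doses at ~2 min intervals, then 1 μM carbachol; responses minus basal tension, normalized to carbachol, fitted to R=(Rmax·C)/(EC50+C) for EC50.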

T1 sequence (G1T803 1-400): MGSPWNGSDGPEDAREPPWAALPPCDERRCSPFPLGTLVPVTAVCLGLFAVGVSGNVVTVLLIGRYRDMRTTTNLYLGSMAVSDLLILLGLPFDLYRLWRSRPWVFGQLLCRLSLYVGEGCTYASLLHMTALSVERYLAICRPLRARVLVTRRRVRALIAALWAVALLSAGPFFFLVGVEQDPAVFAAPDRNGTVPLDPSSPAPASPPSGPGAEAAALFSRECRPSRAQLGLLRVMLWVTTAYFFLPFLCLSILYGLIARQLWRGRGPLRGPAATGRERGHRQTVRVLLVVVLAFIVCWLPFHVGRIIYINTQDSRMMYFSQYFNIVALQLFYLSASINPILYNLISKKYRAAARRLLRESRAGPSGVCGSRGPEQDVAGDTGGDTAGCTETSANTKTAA

For the molecule `CCOC(=O)NCCO[C@@H]1[C@H](C)[C@@H](O)[C@](C)(O)[C@@H](CC)OC(=O)[C@H](C)[C@@H](O[C@H]2C[C@@](C)(OC)[C@@H](O)[C@H](C)O2)[C@H](C)[C@@H](O[C@@H]2O[C@H](C)C[C@H](N(C)C(C)C)[C@H]2O)[C@](C)(O)C[C@H]1C` [Compound A-64], in assay [1], the MIC amounted to 64 µg/mL (≈ 72.8 µM). Moreover, the pEC50 (as a rule, the EC50 on a negative log10 scale, so that one unit is a factor of ten) at Motilin Receptor was 7.00.
Regarding `CC[C@H]1OC(=O)[C@H](C)[C@@H](O[C@H]2C[C@@](C)(OC)[C@@H](O)[C@H](C)O2)[C@H](C)[C@@H](O[C@@H]2O[C@H](C)C[C@H](N(C)C(C)C)[C@H]2O)[C@](C)(O)C[C@@H](C)[C@H](OCCNC(=O)OC)[C@H](C)[C@@H](O)[C@]1(C)O` [Compound A-65], in assay [1], the MIC came out at 128 µg/mL (≈ 148 µM). The pEC50 at Motilin Receptor was 6.89.
For `CCNC(=S)NCCO[C@@H]1[C@H](C)[C@@H](O)[C@](C)(O)[C@@H](CC)OC(=O)[C@H](C)[C@@H](O[C@H]2C[C@@](C)(OC)[C@@H](O)[C@H](C)O2)[C@H](C)[C@@H](O[C@@H]2O[C@H](C)C[C@H](N(C)C(C)C)[C@H]2O)[C@](C)(O)C[C@H]1C` [Compound A-67], the MIC in assay [1] is over 128 µg/mL. The negative-log EC50 (pEC50) on Motilin Receptor was 6.66.
Turning to `CC[C@H]1OC(=O)[C@H](C)[C@@H](O[C@H]2C[C@@](C)(OC)[C@@H](O)[C@H](C)O2)[C@H](C)[C@@H](O[C@@H]2O[C@H](C)C[C@H](N(C)C(C)C)[C@H]2O)[C@](C)(O)C[C@@H](C)[C@H](OCC(=O)Nc2cnccn2)[C@H](C)[C@@H](O)[C@]1(C)O` [Compound A-70], the MIC in assay [1] came to 128 µg/mL (≈ 142 µM). Also, the pEC50 on Motilin Receptor is 7.22.
As for `CC[C@H]1OC(=O)[C@H](C)[C@@H](O[C@H]2C[C@@](C)(OC)[C@@H](O)[C@H](C)O2)[C@H](C)[C@@H](O[C@@H]2O[C@H](C)C[C@H](N(C)C(C)C)[C@H]2O)[C@](C)(O)C[C@@H](C)[C@H](OCC(=O)NC)[C@H](C)[C@@H](O)[C@H]1C` [Compound A-71], in assay [1], the MIC is over 128 µg/mL. In addition, on Motilin Receptor, the pEC50 is 7.05.
For the molecule `CC[C@H]1OC(=O)[C@H](C)[C@@H](O[C@H]2C[C@@](C)(OC)[C@@H](O)[C@H](C)O2)[C@H](C)[C@@H](O[C@@H]2O[C@H](C)C[C@H](N(C)C(C)C)[C@H]2O)[C@](C)(O)C[C@@H](C)[C@H](OCC(=O)N(C)C)[C@H](C)[C@@H](O)[C@H]1C` [Compound A-72], in assay [1], the MIC was over 128 µg/mL. Besides, at Motilin Receptor, the pEC50 was 6.57.
Regarding `CC[C@H]1OC(=O)[C@H](C)[C@@H](O[C@H]2C[C@@](C)(OC)[C@@H](O)[C@H](C)O2)[C@H](C)[C@@H](O[C@@H]2O[C@H](C)C[C@H](N(C)C(C)C)[C@H]2O)[C@](C)(O)C[C@@H](C)[C@H](OCCCC(=O)NC)[C@H](C)[C@@H](O)[C@]1(C)O` [Compound A-73], the MIC in assay [1] was determined as 128 µg/mL (≈ 148 µM). On Motilin Receptor, the pEC50 is 7.08.
The corresponding values for `CC[C@H]1OC(=O)[C@H](C)[C@@H](O[C@H]2C[C@@](C)(OC)[C@@H](O)[C@H](C)O2)[C@H](C)[C@@H](O[C@@H]2O[C@H](C)C[C@H](N(C)C(C)C)[C@H]2O)[C@](C)(O)C[C@@H](C)[C@H](OCCCCC(=O)NC)[C@H](C)[C@@H](O)[C@]1(C)O` [Compound A-74] are 128 µg/mL (≈ 146 µM) and 6.57.
The corresponding values for `CC[C@H]1OC(=O)[C@H](C)[C@@H](O[C@H]2C[C@@](C)(OC)[C@@H](O)[C@H](C)O2)[C@H](C)[C@@H](O[C@@H]2O[C@H](C)C[C@H](N(C)C(C)C)[C@H]2O)[C@](C)(O)C[C@@H](C)[C@H](OC(=O)N(C)C)[C@H](C)[C@@H](O)[C@H]1C` [Compound A-75] are over 128 µg/mL and 6.54.
As to `CC[C@H]1OC(=O)[C@H](C)[C@@H](O[C@H]2C[C@@](C)(OC)[C@@H](O)[C@H](C)O2)[C@H](C)[C@@H](O[C@@H]2O[C@H](C)C[C@H](N(C)C(C)C)[C@H]2O)[C@](C)(O)C[C@@H](C)[C@H](OCCCCCC(=O)NC)[C@H](C)[C@@H](O)[C@]1(C)O` [Compound A-76], the MIC in assay [1] was 128 µg/mL (≈ 144 µM). The pEC50 at Motilin Receptor is 6.82.
